Paper PMC4792926, “G9a-mediated methylation of ERα links the PHF20/MOF histone acetyltransferase complex to hormonal gene expression” (Nature Communications, 2016)

B1: DBD: recombinant ERα DNA-binding domain (aa 175–250) (protein, UniProt P03372 175-250, looked up, fragment)
chain: AMESAKETRYCAVCNDYASGYHYGVWSCEGCKAFFKRSIQGHNDYMCPATNQCTIDKNRRKSCQACRLRKCYEVGM
B2: AF-1: recombinant ERα N-terminal activation function domain (aa 1–190) (protein, UniProt P03372 1-190, looked up, fragment)
chain: MTMTLHTKASGMALLHQIQGNELEPLNRPQLKIPLERPLGEVYLDSSKPAVYNYPEGAAYEFNAAAAANAQVYGQTGLPYGPGSEAAAFGSNGLGGFPPLNSVSPSPLMLLHPPPQLSPFLQPHGQQVPYYLENEPSGYTVREAGPPAFYRPNSDNRRQGGRERLASTNDKGSMAMESAKETRYCAVCND
B3: DBD and hinge fragment: recombinant ERα fragment DBD+hinge (aa 175–310) (protein, UniProt P03372 175-310, looked up, fragment)
chain: AMESAKETRYCAVCNDYASGYHYGVWSCEGCKAFFKRSIQGHNDYMCPATNQCTIDKNRRKSCQACRLRKCYEVGMMKGGIRKDRRGGRMLKHKRQRDDGEGRGEVGSAGDMRAANLWPSPLMIKRSKKNSLALSL

Columns and labels:
G9a [1] = experiment: In vitro methylation of ERα peptides by G9a, mass spectrometry; assay type: biochemical, human; details: 1 μg peptide, pH 8.0, 30 °C, 4 h
G9a [2] = experiment: In vitro methylation of ERα protein fragments by G9a; assay type: biochemical, human; details: 2 μg G9a, 2 μg substrate, 3H-S-adenosylmethionine, pH 8.0, 30 °C, 4 h; autoradiography
Source text: Complementary DNA encoding full-length human ERα, G9a, PHF20 and NCOA2 genes were cloned into pENTR3C and subsequently cloned into destination vectors using the Gateway technique (Invitrogen). The destination vectors used in this study include p3Flag and pCAG-Flag (for Flag-tag expression), pCAG-Myc (for Myc-tag expression) and pCAG (for no-tag expression). pERE-Luc Firefly luciferase and pRl-TK Renilla luciferase were used for the reporter assays. For in vitro enzymatic assays, G9a, ERα, ERα fragments and mutants were cloned into pGEX-6P1 (GE Healthcare) to express and purify the proteins as GST-tagged proteins. Point mutations were generated using site-directed mutagenesis (Stratagene). shRNA constructs were purchased from Sigma. The G9a-targeting shRNA sequences used in this study were 5′-[…]-3′, 5′-[…]-3′ and 5′-[…]-3′ and the PHF20-targeting shRNA sequences were 5′-[…]-3′ and 5′-[…]-3′. Peptides were synthesized at the W.M. Keck Facility at Yale University or at CPC-Scientific. Polyclonal anti-dimethylated ERαK235 rabbit sera (CPC Scientific, 1:500) were affinity-purified with an ERαK235me2 peptide and depleted against the corresponding unmethylated peptide. Anti-G9a antibodies were purchased from MBL (D141-3, 1:1,000) and Sigma (G6919, 1:2,000); anti-PHF20 (3934S, 1:1,000) antibody from Cell Signaling; anti-ERα (Sc-503, 1:1,000) and anti-GST (Sc-459, 1:1,000) antibodies from Santa Cruz; anti-FLAG (F-1804, 1:5,000) and anti-tubulin (T8328, 1:5,000) antibodies from Sigma; anti-H4K16ac (07–329, 1:1,000) antibody from Millipore; anti-total H3 (ab1791, 1:5,000) and anti-H3K9me2 (ab1220, 1:1,000) antibodies from Abcam; and streptavidin horseradish peroxidase from Thermo Scientific. 17β-estradiol and the G9a inhibitor BIX-01294 were purchased from Sigma.
The pGEX constructs encoding human G9a, ERα and ERα fragments including AF1 (aa 1–190), DBD (aa 175–250), hinge (aa 251–310), DBD+hinge (aa 175–310), LBD (aa 305–596) and the second Tudor domain of PHF20 (aa 58–148) were expressed in E. coli Rosetta (DE3) pLysS cells. After induction with IPTG (0.5 mM) for 16–18 h at 18 °C, cells were collected by centrifugation at 5,000g, lysed by sonication and purified using Glutathione Sepharose 4B beads (GE Healthcare). […]
Recombinant G9a (2 μg) was incubated with recombinant ERα fragments proteins (2 μg) in methylation assay buffer (50 mM Tris-HCl, pH 8.0, 10% glycerol, 20 mM KCl, 5 mM MgCl2, 1 mM DTT, 1 mM PMSF and 0.1 mM unlabelled or ^3H-labelled S-adenosylmethionine (GE Healthcare)) at 30 °C for 4 h. Reactions were stopped by adding SDS–PAGE sample buffer, and the methylation status was determined by autoradiography or western blotting analysis. […]

PHF20 Tudor = experiment: 1H,15N HSQC NMR titration of PHF20 Tudor; assay type: binding, human; details: 0.2 mM 15N-labelled PHF20 Tudor, 25 mM Tris-HCl pH 7.5, 150 mM NaCl, 298 K, 600 MHz
Protocol: The pGEX constructs encoding human G9a, ERα and ERα fragments including AF1 (aa 1–190), DBD (aa 175–250), hinge (aa 251–310), DBD+hinge (aa 175–310), LBD (aa 305–596) and the second Tudor domain of PHF20 (aa 58–148) were expressed in E. coli Rosetta (DE3) pLysS cells. After induction with IPTG (0.5 mM) for 16–18 h at 18 °C, cells were collected by centrifugation at 5,000g, lysed by sonication and purified using Glutathione Sepharose 4B beads (GE Healthcare). For the NMR titration assays, PHF20 Tudor was expressed in the ^15NH4Cl-supplemented (Sigma) minimal media, and the GST tag was cleaved with PreScission protease, and the cleaved protein was concentrated using Millipore concentrators (Millipore).
The ^1H,^15N HSQC spectra of 0.2 mM uniformly ^15N-labelled PHF20 Tudor (in 25 mM Tris-HCl, pH 7.5 buffer, 150 mM NaCl, 5 mM dithiothreitol and ∼8% D2O) were collected at 298 K on a Varian INOVA 600 MHz spectrometer. Binding was monitored by titrating unmodified ERα and ERαK235me2 peptides (aa 228–239) against the PHF20 Tudor domain. NMR data were processed and analysed with NMRPipe and NMRDraw as previously described. NMR assignments for PHF20 Tudor were taken from the Biological Magnetic Resonance Data Bank (BMRB 17673)[31].

Molecule | methylation by G9a (G9a [2]) | also measured
ERα peptide containing K235: ERα peptide spanning amino acids 227–244, G9a substrate (CTIDKNRRKSCQACRLRK; UniProt P03372 227-244, looked up, fragment) |  | increase in mass on G9a methylation (G9a [1]): 28 Da
hinge region: recombinant ERα hinge fragment (aa 251–310) (MKGGIRKDRRGGRMLKHKRQRDDGEGRGEVGSAGDMRAANLWPSPLMIKRSKKNSLALSL; UniProt P03372 251-310, looked up, fragment) | methylated both the DBD and the hinge region | 
peptide containing K303: ERα peptide spanning amino acids 294–313, G9a substrate (SPLMIKRSKKNSLALSLTAD; UniProt P03372 294-313, looked up, fragment) |  | increase in mass on G9a methylation (G9a [1]): 14 Da
unmethylated ERα (aa 228–239) peptide: unmodified ERα peptide (aa 228–239) (TIDKNRRKSCQA) |  | chemical shift changes of PHF20 Tudor (PHF20 Tudor): no resonance perturbations were observed
B1 | methylated both the DBD and the hinge region | 
B2 | not the AF-1 and LBD fragments | 
B3 | specifically methylated | 
